Experimental data from PMC11892739, “Site-specific molecular glues for the 14-3-3/Tau pS214 protein–protein interaction via reversible covalent imine tethering” (RSC Medicinal Chemistry, 2025).

Target: T1, 14-3-3ζ/SOS1 peptide (Homo sapiens, UniProt P63104)
T1 construct: made in house; host or cells: NiCo21 (DE3) E. coli
Assay: FA peptide screen, 14-3-3ζ titration to client peptide and compound: SOS1
Type: binding
Settings: 250 μM compound, 100 nM peptide; +1 Ala
Experimental: Since the hub protein 14-3-3 binds to hundreds of phosphoprotein partners, selectivity of PPI stabilization is a major challenge. The interplay of chemical reactivity, and the topology and functionality of the composite binding pocket shaped by 14-3-3 and Tau potentially provide entries towards selective stabilization. […] Here, 14-3-3ζ was titrated to a constant concentration of client peptide (100 nM) and compound (250 μM) to determine the SF250μM values for the particular 14-3-3 PPI. A variety of 14-3-3 binding proteins was represented in this client panel whereby the size and hydrophobicity of the +1 amino acid were varied. […]
chromatography (HisTrap high performance cartridges, Cytiva). […] Dialyzed protein was concentrated to ∼40 mg/mL, analyzed by Q -Tof LC/MS, and aliquots were flash -frozen for storage at −80 °C. […]
0.1% (v/v) Tween20, 0.1% (w/v) BSA). […] Measurements were performed directly after plate preparation, using a Tecan SPARK plate reader at room temperature ( λex: 485±20 nm; λem: 535±25 nm; mirror: automatic; flashes: 30; settle time: 1 ms; gain: optimal; Z -position: calculated from well). […] All data were analyzed using GraphPad Prism (10.0.1) and fitted with a four -parameter logistic model (4PL) to determine binding affinities (dissociation constant, KD). […]
Fluorescence Anisotropy – peptide screen […]

T1 sequence (P63104 whole entry, other chains not shown): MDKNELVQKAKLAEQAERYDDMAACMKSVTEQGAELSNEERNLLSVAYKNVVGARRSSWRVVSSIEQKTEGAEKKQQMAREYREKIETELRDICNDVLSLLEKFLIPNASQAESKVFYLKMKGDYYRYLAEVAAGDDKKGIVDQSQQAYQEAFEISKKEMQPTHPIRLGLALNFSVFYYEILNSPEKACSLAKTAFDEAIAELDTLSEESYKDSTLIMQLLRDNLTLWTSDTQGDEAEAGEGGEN

stabilization of 14-3-3/SOS1 peptide (in words): minor off-target effects
Compound: CCc1ccc(-c2nccn2-c2ccc(C=O)c(Br)c2)cc1 [Compound 18]
